{"source": "paper PMC10817917", "about": "“Alkyl deoxyglycoside-polymyxin combinations against critical priority carbapenem-resistant gram-negative bacteria” (Scientific Reports, 2024)", "key": {"E. coli K12 spheroplasts": {"test_system": "E. coli K12 spheroplasts", "conditions": "only the IM left intact; cited from earlier work"}, "K. pneumoniae CQ1947": {"test_system": "K. pneumoniae CQ1947", "assay": "Broth microdilution MIC, glycosides with or without polymyxins", "format": "cell-based, Klebsiella pneumoniae", "conditions": "for MIC: Klebsiella pneumoniae, CQ1947"}, "A. baumannii CQ4322": {"test_system": "A. baumannii CQ4322", "assay": "Broth microdilution MIC/MBC, glycosides with or without polymyxins", "format": "cell-based, Acinetobacter baumannii", "conditions": "for MIC: Acinetobacter baumannii, CQ4322"}, "B. cereus ATCC 14579": {"test_system": "B. cereus ATCC 14579", "conditions": "cited from earlier work"}, "K. pneumoniae CQ4921": {"test_system": "K. pneumoniae CQ4921", "assay": "Broth microdilution MIC/MBC, glycosides with or without polymyxins", "format": "cell-based, Klebsiella pneumoniae", "conditions": "for MIC: Klebsiella pneumoniae, CQ4921"}, "E. coli K12": {"test_system": "E. coli K12", "conditions": "cited from earlier work"}, "[1]": {"conditions": "PE vs phosphatidylcholine (PC); cited from earlier work"}, "[2]": {"conditions": "alone, read-out: MICA (MIC of each compound individually)"}, "[3]": {"conditions": "combination with the lowest FICI"}, "[4]": {"conditions": "compound + colistin, lowest FICI"}}, "note": "Entries after “also recorded” stand apart in the source; their conditions may differ. Where two headings read alike, the source gives them in different places.", "data": [{"compound": "CCCCCCCCCCCCO[C@H]1C[C@H](O)[C@@H](O)[C@H](C)O1", "note": "[Compound 3, dodecyl 2,6-dideoxy-α-L-arabino-hexopyranoside]", "values": [{"measurement": "MIC", "setting": "E. coli K12 spheroplasts", "result": 4, "unit": "µg/mL"}, {"measurement": "MIC of colistin in combination with the compound", "setting": "K. pneumoniae CQ1947; Cpd conc. 0.4 μg/mL, strain F", "result": 0.5, "unit": "µg/mL"}, {"measurement": "MIC of colistin in combination with the compound", "setting": "K. pneumoniae CQ1947; Cpd conc. 0.8 μg/mL, strain F", "result": 0.5, "unit": "µg/mL"}, {"measurement": "MIC of colistin in combination with the compound", "setting": "K. pneumoniae CQ1947; Cpd conc. 3.125 μg/mL, strain F", "result": 0.5, "unit": "µg/mL"}, {"measurement": "MIC of colistin in combination with the compound", "setting": "K. pneumoniae CQ1947; Cpd conc. 6.25 μg/mL, strain F", "result": 0.5, "unit": "µg/mL"}, {"measurement": "MIC of colistin in combination with the compound", "setting": "K. pneumoniae CQ1947; Cpd conc. 12.5 μg/mL, strain F", "result": 0.5, "unit": "µg/mL"}, {"measurement": "MIC of colistin in combination with the compound", "setting": "K. pneumoniae CQ1947; Cpd conc. […], strain F", "result": 0.5, "unit": "µg/mL"}, {"measurement": "MIC", "setting": "K. pneumoniae CQ1947; agent alone, no adjuvant (polymyxin conc. 0), strain F, read-out: MIC", "result": "> 100", "unit": "µg/mL"}, {"measurement": "MIC", "setting": "K. pneumoniae CQ1947; [2]", "result": "> 100", "unit": "µg/mL"}, {"measurement": "MIC of compound in combination with PMB", "setting": "K. pneumoniae CQ1947; PMB 0.25 μg/mL, strain F", "result": "> 100", "unit": "µg/mL"}, {"measurement": "MIC of compound in combination with PMB", "setting": "K. pneumoniae CQ1947; PMB 0.5 μg/mL, strain F", "result": 1.6, "unit": "µg/mL"}, {"measurement": "MIC of compound in combination with colistin", "setting": "K. pneumoniae CQ1947; colistin 0.06 μg/mL, strain F", "result": "> 100", "unit": "µg/mL"}, {"measurement": "MIC of compound in combination with colistin", "setting": "K. pneumoniae CQ1947; colistin 0.125 μg/mL, strain F", "result": "> 100", "unit": "µg/mL"}, {"measurement": "MIC of compound in combination with colistin", "setting": "K. pneumoniae CQ1947; colistin 0.25 μg/mL, strain F", "result": "> 100", "unit": "µg/mL"}, {"measurement": "MIC of compound in combination with colistin", "setting": "K. pneumoniae CQ1947; colistin 0.5 μg/mL, strain F", "result": "≤ 0.1", "unit": "µg/mL"}, {"measurement": "MICA(A + B) (MIC of compound in combination with colistin)", "setting": "K. pneumoniae CQ1947; [3]", "result": 0.4, "unit": "µg/mL"}, {"measurement": "MICB(A + B) (MIC of colistin in combination with compound)", "setting": "K. pneumoniae CQ1947; [3]", "result": 0.5, "unit": "µg/mL"}, {"measurement": "Interpretation (of FICI)", "setting": "K. pneumoniae CQ1947; compound + colistin", "result": "Indifferent (1.0 to 4.0 were indifferent)"}, {"measurement": "FICI", "setting": "K. pneumoniae CQ1947; [4]", "result": 1.002}, {"measurement": "MIC", "setting": "A. baumannii CQ4322; agent alone, no adjuvant (polymyxin conc. 0), strain G, read-out: MIC", "result": "> 100", "unit": "µg/mL"}, {"measurement": "MIC", "setting": "A. baumannii CQ4322; [2]", "result": "> 100", "unit": "µg/mL"}, {"measurement": "MIC of colistin in combination with the compound", "setting": "A. baumannii CQ4322; Cpd conc. 0.4 μg/mL, strain G", "result": 0.5, "unit": "µg/mL"}, {"measurement": "MIC of colistin in combination with the compound", "setting": "A. baumannii CQ4322; Cpd conc. 0.8 μg/mL, strain G", "result": 0.5, "unit": "µg/mL"}, {"measurement": "MIC of colistin in combination with the compound", "setting": "A. baumannii CQ4322; Cpd conc. 3.125 μg/mL, strain G", "result": 0.5, "unit": "µg/mL"}, {"measurement": "MIC of colistin in combination with the compound", "setting": "A. baumannii CQ4322; Cpd conc. 6.25 μg/mL, strain G", "result": 0.25, "unit": "µg/mL"}, {"measurement": "MIC of colistin in combination with the compound", "setting": "A. baumannii CQ4322; Cpd conc. 12.5 μg/mL, strain G", "result": 0.25, "unit": "µg/mL"}, {"measurement": "MIC of colistin in combination with the compound", "setting": "A. baumannii CQ4322; Cpd conc. […], strain G", "result": 0.5, "unit": "µg/mL"}, {"measurement": "MIC of compound in combination with PMB", "setting": "A. baumannii CQ4322; PMB 0.25 μg/mL, strain G", "result": "> 100", "unit": "µg/mL"}, {"measurement": "MIC of compound in combination with PMB", "setting": "A. baumannii CQ4322; PMB 0.5 μg/mL, strain G", "result": 0.8, "unit": "µg/mL"}, {"measurement": "MIC of compound in combination with colistin", "setting": "A. baumannii CQ4322; colistin 0.06 μg/mL, strain G", "result": "> 100", "unit": "µg/mL"}, {"measurement": "MIC of compound in combination with colistin", "setting": "A. baumannii CQ4322; colistin 0.125 μg/mL, strain G", "result": "> 100", "unit": "µg/mL"}, {"measurement": "MIC of compound in combination with colistin", "setting": "A. baumannii CQ4322; colistin 0.25 μg/mL, strain G", "result": 6.3, "unit": "µg/mL"}, {"measurement": "MIC of compound in combination with colistin", "setting": "A. baumannii CQ4322; colistin 0.5 μg/mL, strain G", "result": "≤ 0.1", "unit": "µg/mL"}, {"measurement": "MICA(A + B) (MIC of compound in combination with colistin)", "setting": "A. baumannii CQ4322; [3]", "result": 6.25, "unit": "µg/mL"}, {"measurement": "MICB(A + B) (MIC of colistin in combination with compound)", "setting": "A. baumannii CQ4322; [3]", "result": 0.25, "unit": "µg/mL"}, {"measurement": "Interpretation (of FICI)", "setting": "A. baumannii CQ4322; compound + colistin", "result": "Additive (from 0.5 to 1.0 were additive)"}, {"measurement": "FICI", "setting": "A. baumannii CQ4322; [4]", "result": 0.53}, {"measurement": "MIC", "setting": "B. cereus ATCC 14579", "result": 16, "unit": "µg/mL"}, {"measurement": "MIC of colistin in combination with the compound", "setting": "K. pneumoniae CQ4921; Cpd conc. 0.4 μg/mL, strain C", "result": 0.5, "unit": "µg/mL"}, {"measurement": "MIC of colistin in combination with the compound", "setting": "K. pneumoniae CQ4921; Cpd conc. 0.8 μg/mL, strain C", "result": 0.5, "unit": "µg/mL"}, {"measurement": "MIC of colistin in combination with the compound", "setting": "K. pneumoniae CQ4921; Cpd conc. 3.125 μg/mL, strain C", "result": 0.25, "unit": "µg/mL"}, {"measurement": "MIC of colistin in combination with the compound", "setting": "K. pneumoniae CQ4921; Cpd conc. 6.25 μg/mL, strain C", "result": 0.25, "unit": "µg/mL"}, {"measurement": "MIC of colistin in combination with the compound", "setting": "K. pneumoniae CQ4921; Cpd conc. 12.5 μg/mL, strain C", "result": 0.25, "unit": "µg/mL"}, {"measurement": "MIC of colistin in combination with the compound", "setting": "K. pneumoniae CQ4921; Cpd conc. […], strain C", "result": 0.5, "unit": "µg/mL"}, {"measurement": "MIC", "setting": "K. pneumoniae CQ4921; agent alone, no adjuvant (polymyxin conc. 0), strain C, read-out: MIC", "result": "> 100", "unit": "µg/mL"}, {"measurement": "MIC", "setting": "K. pneumoniae CQ4921; [2]", "result": "> 100", "unit": "µg/mL"}, {"measurement": "MIC of compound in combination with PMB", "setting": "K. pneumoniae CQ4921; PMB 0.5 μg/mL, strain C", "result": "≤ 0.1", "unit": "µg/mL"}, {"measurement": "MIC of compound in combination with colistin", "setting": "K. pneumoniae CQ4921; colistin 0.06 μg/mL, strain C", "result": "> 100", "unit": "µg/mL"}, {"measurement": "MIC of compound in combination with colistin", "setting": "K. pneumoniae CQ4921; colistin 0.125 μg/mL, strain C", "result": "> 100", "unit": "µg/mL"}, {"measurement": "MIC of compound in combination with colistin", "setting": "K. pneumoniae CQ4921; colistin 0.25 μg/mL, strain C", "result": 3.1, "unit": "µg/mL"}, {"measurement": "MIC of compound in combination with colistin", "setting": "K. pneumoniae CQ4921; colistin 0.5 μg/mL, strain C", "result": 0.2, "unit": "µg/mL"}, {"measurement": "MICA(A + B) (MIC of compound in combination with colistin)", "setting": "K. pneumoniae CQ4921; [3]", "result": 3.125, "unit": "µg/mL"}, {"measurement": "MICB(A + B) (MIC of colistin in combination with compound)", "setting": "K. pneumoniae CQ4921; [3]", "result": 0.25, "unit": "µg/mL"}, {"measurement": "Interpretation (of FICI)", "setting": "K. pneumoniae CQ4921; compound + colistin", "result": "Additive (from 0.5 to 1.0 were additive)"}, {"measurement": "FICI", "setting": "K. pneumoniae CQ4921; [4]", "result": 0.52}, {"measurement": "MIC", "setting": "E. coli K12", "result": 256, "unit": "µg/mL"}, {"measurement": "interaction with phosphatidylethanolamine (PE)", "setting": "[1]", "result": "selectively interact with phosphatidylethanolamine (PE); also recorded: Confirmed PE binder"}]}]}
